Results: ChEMBL document CHEMBL5126603, “Discovery of Clinical Candidate CHF-6366: A Novel Super-soft Dual Pharmacology Muscarinic Antagonist and β2 Agonist (MABA) for the Inhaled Treatment of Respiratory Diseases” (J Med Chem, 2022)

Assays:
[1] = Metabolic stability in rat lung S9 fraction assessed as half life at 1 uM measured after 0 to 60 mins in presence of NADPH by LC-MS/MS analysis; assay type: ADME, subcellular; details: time 0-60 min
[2] = Metabolic stability in human lung S9 fraction assessed as half life at 1 uM measured after 0 to 60 mins in presence of NADPH by LC-MS/MS analysis; assay type: ADME, subcellular; details: time 0-60 min
[3] = Metabolic stability in Dunkin-Hartley guinea pig lung S9 fraction assessed as half life at 1 uM measured after 0 to 60 mins in presence of NADPH by LC-MS/MS analysis; assay type: ADME, subcellular, Cavia porcellus; details: time 0-60 min
[4] = Metabolic stability in human plasma assessed as half life at 5 uM measured upto 120 mins by LC-MS/MS analysis; assay type: ADME, cell-free
[5] = Metabolic stability in rat plasma assessed as half life at 5 uM measured upto 120 mins by LC-MS/MS analysis; assay type: ADME, cell-free
[6] = Metabolic stability in Dunkin-Hartley guinea pig plasma assessed as half life at 5 uM measured upto 120 mins by LC-MS/MS analysis; assay type: ADME, cell-free, Cavia porcellus
[7] = In vivo antagonist activity at muscarinic M3 receptor in Dunkin-Hartley guinea pig trachea assessed as inhibition of acetylcholine-induced bronchoconstriction at 3 nmol/Kg, IT(Intratracheal) measured after 1 hr in presence of ICI-118551 by Konzett-Roessler methodology relative to control; assay type: functional; details: Cavia porcellus
[8] = In vivo agonist activity at beta-2 adrenoceptor in Dunkin-Hartley guinea pig trachea assessed as inhibition of histamine-induced bronchoconstriction at 3 nmol/Kg, IT(Intratracheal) measured after 1 hr by Konzett-Roessler methodology relative to control; assay type: functional; details: Cavia porcellus
Trachea [9] = experiment: Bifunctional antagonist activity at muscarinic M3 receptor /agonist activity at beta-2 adrenoceptor in Dunkin-Hartley guinea pig trachea assessed as inhibition of acetylcholine-induced bronchoconstriction at 3 nmol/Kg, IT(Intratracheal) measured after 1 hr by Konzett-Roessler methodology relative to control; assay type: functional; details: Cavia porcellus
[10] = In vivo antagonist activity at muscarinic M3 receptor in Dunkin-Hartley guinea pig trachea assessed as inhibition of acetylcholine-induced bronchoconstriction at 3 nmol/Kg, IT(Intratracheal) measured after 24 hr in presence of ICI-118551 by Konzett-Roessler methodology relative to control; assay type: functional; details: Cavia porcellus
[11] = In vivo agonist activity at beta-2 adrenoceptor in Dunkin-Hartley guinea pig trachea assessed as inhibition of histamine-induced bronchoconstriction at 3 nmol/Kg, IT(Intratracheal) measured after 24 hr by Konzett-Roessler methodology relative to control; assay type: functional; details: Cavia porcellus
Trachea [12] = experiment: Bifunctional antagonist activity at muscarinic M3 receptor /agonist activity at beta-2 adrenoceptor in Dunkin-Hartley guinea pig trachea assessed as inhibition of acetylcholine-induced bronchoconstriction at 3 nmol/Kg, IT(Intratracheal) measured after 24 hr by Konzett-Roessler methodology relative to control; assay type: functional; details: Cavia porcellus
Trachea [13] = experiment: In vivo bifunctional antagonist activity at muscarinic M3 receptor /agonist activity at beta-2 adrenoceptor in Dunkin-Hartley guinea pig trachea assessed as time duration for inhibition of carbachol induced contraction measured […]; assay type: functional, Cavia porcellus
Trachea [14] = experiment: In vivo bifunctional antagonist activity at muscarinic M3 receptor /agonist activity at beta-2 adrenoceptor in Dunkin-Hartley guinea pig trachea assessed as inhibition of carbachol induced contraction; assay type: functional, tissue-based; details: Cavia porcellus
[15] = In vivo antagonist activity at muscarinic M3 receptor in Dunkin-Hartley guinea pig trachea assessed as inhibition of acetylcholine induced bronchoconstriction at 1 nmol/Kg, IT(Intratracheal) measured after 1 hr in presence of ICI-118551 by Konzett-Roessler methodology relative to control; assay type: functional; details: Cavia porcellus
[16] = In vivo antagonist activity at muscarinic M3 receptor in Dunkin-Hartley guinea pig trachea assessed as inhibition of acetylcholine induced bronchoconstriction at 1 nmol/Kg, IT(Intratracheal) measured after 24 hr in presence of ICI-118551 by Konzett-Roessler methodology relative to control; assay type: functional; details: Cavia porcellus
[17] = In vivo agonist activity at beta-2 adrenoceptor in Dunkin-Hartley guinea pig trachea assessed as inhibition of histamine induced bronchoconstriction at 1 nmol/Kg, IT(Intratracheal) measured after 1 hr by Konzett-Roessler methodology relative to control; assay type: functional; details: Cavia porcellus
[18] = In vivo agonist activity at beta-2 adrenoceptor in Dunkin-Hartley guinea pig trachea assessed as inhibition of histamine induced bronchoconstriction at 1 nmol/Kg, IT(Intratracheal) measured after 24 hr by Konzett-Roessler methodology relative to control; assay type: functional; details: Cavia porcellus
Trachea [19] = experiment: Bifunctional antagonist activity at muscarinic M3 receptor /agonist activity at beta-2 adrenoceptor in Dunkin-Hartley guinea pig trachea assessed as inhibition of acetylcholine induced bronchoconstriction at 1 nmol/Kg, IT(Intratracheal) measured after 1 hr by Konzett-Roessler methodology relative to control; assay type: functional; details: Cavia porcellus
Trachea [20] = experiment: Bifunctional antagonist activity at muscarinic M3 receptor /agonist activity at beta-2 adrenoceptor in Dunkin-Hartley guinea pig trachea assessed as inhibition of acetylcholine induced bronchoconstriction at 1 nmol/Kg, IT(Intratracheal) measured after 24 hr by Konzett-Roessler methodology relative to control; assay type: functional; details: Cavia porcellus
[21] = Cmax in Dunkin-Hartley guinea pig lung at 500 nmol/Kg, IT(Intratracheal) measured after 72 hrs by LC/MS-MS analysis; assay type: ADME, tissue-based, Cavia porcellus; parameters: time 72 hrs, dose 500 nmol/kg, route it(Intratracheal); details: inhaled or intranasal
[22] = Tmax in Dunkin-Hartley guinea pig lung at 500 nmol/Kg, IT(Intratracheal) measured after 72 hrs by LC/MS-MS analysis; assay type: ADME, tissue-based, Cavia porcellus; details: inhaled or intranasal
[23] = AUClast in Dunkin-Hartley guinea pig lung at 500 nmol/Kg, IT(Intratracheal) measured after 72 hrs by LC/MS-MS analysis; assay type: ADME, tissue-based, Cavia porcellus; details: in vivo, inhaled_or_intranasal
[24] = AUCinfinity in Dunkin-Hartley guinea pig lung at 500 nmol/Kg, IT(Intratracheal) measured after 72 hrs by LC/MS-MS analysis; assay type: ADME, tissue-based, Cavia porcellus; parameters: dose 500 nmol/kg, time 72 hrs, route it(Intratracheal); details: in vivo, inhaled_or_intranasal
[25] = Half life in Dunkin-Hartley guinea pig lung at 500 nmol/Kg, IT(Intratracheal) measured after 72 hrs by LC/MS-MS analysis; assay type: ADME, tissue-based, Cavia porcellus; details: inhaled or intranasal
[26] = Cmax in Dunkin-Hartley guinea pig plasma at 500 nmol/Kg, IT(Intratracheal) measured after 72 hrs by LC/MS-MS analysis; assay type: ADME, cell-free, Cavia porcellus; parameters: dose 500 nmol/kg, time 72 hrs, route it(Intratracheal); details: inhaled or intranasal
[27] = Tmax in Dunkin-Hartley guinea pig plasma at 500 nmol/Kg, IT(Intratracheal) measured after 72 hrs by LC/MS-MS analysis; assay type: ADME, cell-free, Cavia porcellus; details: inhaled or intranasal
[28] = AUClast in Dunkin-Hartley guinea pig plasma at 500 nmol/Kg, IT(Intratracheal) measured after 72 hrs by LC/MS-MS analysis; assay type: ADME, cell-free, Cavia porcellus; parameters: time 72 hrs, dose 500 nmol/kg, route it(Intratracheal); details: inhaled or intranasal
[29] = AUCinfinity in Dunkin-Hartley guinea pig plasma at 500 nmol/Kg, IT(Intratracheal) measured after 72 hrs by LC/MS-MS analysis; assay type: ADME, cell-free, Cavia porcellus; parameters: dose 500 nmol/kg, time 72 hrs, route it(Intratracheal); details: inhaled or intranasal
[30] = Half life in Dunkin-Hartley guinea pig plasma at 500 nmol/Kg, IT(Intratracheal) measured after 72 hrs by LC/MS-MS analysis; assay type: ADME, cell-free, Cavia porcellus; details: inhaled or intranasal
[31] = Mutagenicity in Salmonella typhimurium assessed as induction of reverse mutation by Ames test; assay type: toxicity; details: salmonella enterica subsp. enterica serovar typhimurium
[32] = Mutagenicity in Escherichia coli assessed as induction of reverse mutation by Ames test; assay type: toxicity
Trachea [33] = experiment: Bifunctional antagonist activity at muscarinic M3 receptor /agonist activity at beta-2 adrenoceptor in Dunkin-Hartley guinea pig trachea assessed as inhibition of acetylcholine-induced bronchoconstriction at 1 nmol/Kg, IT(Intratracheal) measured after 5 mins by Konzett-Roessler methodology relative to control; assay type: functional; details: Cavia porcellus
Trachea [34] = experiment: Bifunctional antagonist activity at muscarinic M3 receptor /agonist activity at beta-2 adrenoceptor in Dunkin-Hartley guinea pig trachea assessed as inhibition of acetylcholine-induced bronchoconstriction at 1 nmol/Kg, IT(Intratracheal) measured after 15 mins by Konzett-Roessler methodology relative to control; assay type: functional; details: Cavia porcellus, 0.25 h
Trachea [35] = experiment: Bifunctional antagonist activity at muscarinic M3 receptor /agonist activity at beta-2 adrenoceptor in Dunkin-Hartley guinea pig trachea assessed as inhibition of acetylcholine-induced bronchoconstriction at 1 nmol/Kg, IT(Intratracheal) measured after 30 mins by Konzett-Roessler methodology relative to control; assay type: functional; details: Cavia porcellus, 0.5 h

Row | SMILES | half-life at 1 µM [1] [min] | half-life at 1 µM [2] [min] | half-life at 1 µM [3] [min] | half-life at 5 µM [4] [min] | half-life at 5 µM [5] [min] | half-life at 5 µM [6] [min] | inhibition in vivo at 0.003 µmol/kg [7] [%] | inhibition in vivo at 0.003 µmol/kg [8] [%] | inhibition in vivo at 0.003 µmol/kg (Trachea [9]) [%] | inhibition in vivo at 0.003 µmol/kg [10] [%] | inhibition in vivo at 0.003 µmol/kg [11] [%] | inhibition in vivo at 0.003 µmol/kg (Trachea [12]) [%] | Time (Trachea [13]) [min] | IC50 (Trachea [14]) [nM] | inhibition in vivo at 0.001 µmol/kg [15] [%] | inhibition in vivo at 0.001 µmol/kg [16] [%] | inhibition in vivo at 0.001 µmol/kg [17] [%] | inhibition in vivo at 0.001 µmol/kg (Trachea [19]) [%] | inhibition in vivo at 0.001 µmol/kg (Trachea [20]) [%] | other results
1 | O=C(N[C@@H](c1ccccc1)c1cccc(OCc2ccc(C(=O)OCCCCNC[C@H](O)c3ccc(O)c4[nH]c(=O)ccc34)o2)c1)O[C@H]1CN2CCC1CC2 | 120 | 32 | > 120 | < 5 | 7 | > 120 | 73.7 | 84.5 | 78.3 | 43.5 | 48.7 | 60.6 | >225 | 0.2 | 64.7 | 9.4 | 67.8 | 72 | 34.2 | inhibition in vivo at 0.001 µmol/kg [18]: 48.9%
2 | O=C(N[C@@H](c1ccccc1)c1cccc(OCc2ccc(C(=O)OCCCCNC[C@H](O)c3ccc(O)c4[nH]c(=O)ccc34)cc2)c1)O[C@H]1CN2CCC1CC2 |  | 26.4 |  | < 5 | < 5 | 69.8 |  |  |  |  |  |  | >225 | 0.1 |  |  |  |  |  | 
3 | O=C(N[C@@H](c1ccccc1)c1cccc(OCc2nc(C(=O)OCCCCNC[C@H](O)c3ccc(O)c4[nH]c(=O)ccc34)co2)c1)O[C@H]1CN2CCC1CC2 | 120 | 35 | > 120 | < 5 | < 5 | 77.9 | 96.1 | 97.5 | 97.2 | 37.2 | 49.9 | 58.8 | >270 | 0.251 | 65.5 | 23.8 | 67.7 | 70 | 31.9 | 
4 | O=c1ccc2c([C@@H](O)CNCCCCO)ccc(O)c2[nH]1 |  |  |  |  |  |  |  |  |  |  |  |  |  |  |  |  |  |  |  | Cmax [21]: 334 ng/g; Tmax [22]: 4.98 min; AUClast [23]: 2429 ng·h/g; AUC [24]: 3517 ng·h/g; half-life [25]: 858 min; Cmax [26]: 13.8 ng/g; Tmax [27]: 4.98 min; AUC(0-t) at 72 h [28]: 30.7 ng·h/mL; AUC(0-inf) [29]: 58.9 ng·h/mL; half-life [30]: 464 min; Activity [31]: Non-Toxic; Activity [32]: Non-Toxic; inhibition in vivo at 0.001 µmol/kg (Trachea [33]): 51.4%; inhibition in vivo at 0.001 µmol/kg (Trachea [34]): 23.2%; inhibition in vivo at 0.001 µmol/kg (Trachea [35]): 22%
5 | O=C(N[C@@H](c1ccccc1)c1cccc(OCc2cccc(C(=O)OCCCCNC[C@H](O)c3ccc(O)c4[nH]c(=O)ccc34)c2)c1)O[C@H]1CN2CCC1CC2 |  | 17.2 |  | < 5 | 103 |  |  |  |  |  |  |  | >225 | 0.501 |  |  |  |  |  | 
